Data: US6093744A, “N-acyl sulfamic acid esters useful as hypocholesterolemic agents” (Warner-Lambert Company, priority 1998, dated 2000)
Where a name gives a salt, the structure may show the parent alone.

Key:
[1] = biological target: T1, acyl-CoA: cholesterol acyltransferase (ACAT) (Rattus norvegicus, UniProt Q7TQM4); assay: In vitro inhibition of acylation of cholesterol by oleic acid (LAI), rat liver microsomes; type: biochemical; details: radiolabeled oleic acid
T1 construct: tissue preparation containing rat liver microsomes; from tissue; host or cells: rat liver microsomes
T1 sequence (Q7TQM4 1-524): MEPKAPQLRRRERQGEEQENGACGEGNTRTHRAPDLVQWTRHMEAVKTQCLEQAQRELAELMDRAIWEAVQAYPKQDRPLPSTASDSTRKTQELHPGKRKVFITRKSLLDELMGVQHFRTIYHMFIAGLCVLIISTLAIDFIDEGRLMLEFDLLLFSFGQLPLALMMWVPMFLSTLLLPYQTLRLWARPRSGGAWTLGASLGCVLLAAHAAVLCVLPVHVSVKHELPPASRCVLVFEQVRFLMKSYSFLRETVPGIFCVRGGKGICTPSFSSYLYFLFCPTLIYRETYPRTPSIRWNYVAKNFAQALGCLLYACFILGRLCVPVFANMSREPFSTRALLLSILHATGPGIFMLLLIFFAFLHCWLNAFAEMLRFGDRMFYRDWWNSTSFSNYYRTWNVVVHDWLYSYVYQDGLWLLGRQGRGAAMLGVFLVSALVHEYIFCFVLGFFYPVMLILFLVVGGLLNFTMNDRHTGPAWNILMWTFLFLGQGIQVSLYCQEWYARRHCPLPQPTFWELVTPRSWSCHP
Description: The ability of representative compounds of the present invention to inhibit ACAT was measured using an in vitro test more fully described in Field F J, Salone R G, Biochemica et Biophysica 1982; 712:557-570. The test assesses the ability of a test compound to inhibit the acylation of cholesterol by oleic acid by measuring the amount of radiolabeled cholesterol oleate formed from radiolabeled oleic acid in a tissue preparation containing rat liver microsomes.

Plasma TC = assay: in vivo screen designated APCC (high fat, high cholesterol diet, plasma cholesterol); design: species or system male Sprague-Dawley rats; details: rats, PCC diet with 0.5% cholic acid overnight, vehicle CMC/Tween; for change in vivo at 10 mg/kg / change in vivo at 30 mg/kg: Rattus norvegicus; for change in vivo at 10 mg/kg / APCC % Change in Plasma TC: dose 10 mg/kg
Description: In one in vivo screen designated APCC, male Sprague-Dawley rats (200 to 225 g) were randomly divided into treatment groups and dosed at 4 PM with either vehicle (CMC/Tween) or suspensions of compounds in vehicle. The normal chow diet was then replaced with a high fat, high cholesterol diet (designated PCC) containing 0.5% cholic acid. The rats consumed this diet ad libitum during the night and were sacrificed at 8 AM to obtain blood samples for cholesterol analysis using standard procedures. Statistical differences between mean cholesterol values for the same vehicle were determined using analysis of variance followed by Fisher's least significant test.

SMILES	IC50 [1]	change in vivo at 10 mg/kg (Plasma TC)	APCC % Change in Plasma TC (Plasma TC)	change in vivo at 30 mg/kg (Plasma TC)
CC(C)c1cc(C(C)C)c(CC(=O)NS(=O)(=O)Oc2c(C(C)C)cc(C(N)=O)cc2C(C)C)c(C(C)C)c1 [Example 24, [(2,4,6-Triisopropyl-phenyl)-acetyl]-sulfamic acid 4-carbamoyl-2,6-diisopropyl-phenyl ester]	43.8 µM	-5%		
CC(C)c1cc(C(C)C)c(CC(=O)NS(=O)(=O)Oc2c(C(C)C)cc(CCCCCC(=O)O)cc2C(C)C)c(C(C)C)c1 [Example 37]	> 50 µM	-47%		
CC(C)c1cc(C(C)C)c(CC(=O)NS(=O)(=O)Oc2c(C(C)C)cc(OCCCN(C)C)cc2C(C)C)c(C(C)C)c1.Cl [Example 15, [(2,4,6-Triisopropyl-phenyl)-acetyl]-sulfamic acid 4-(3-dimethylamino-propoxy)-2,6-diisopropyl-phenyl ester hydrochloride salt]			-26%	
CC(C)c1cc(C(C)C)c(CC(=O)NS(=O)(=O)Oc2c(C(C)C)cc(NC(=O)CNC(=O)OC(C)(C)C)cc2C(C)C)c(C(C)C)c1 [Example 3]	18 µM			-40%
CC(C)c1cc(C(C)C)c(CC(=O)NS(=O)(=O)Oc2c(C(C)C)cc(NC(=O)C(C)(C)N)cc2C(C)C)c(C(C)C)c1 [Example 13, [(2,4,6-Triisopropyl-phenyl)-acetyl]-sulfamic acid 4-(2-amino-2-methyl-propionylamino)-2,6-diisopropyl-phenyl ester]	> 50 µM	-8%		
CC(C)c1cc(C(C)C)c(CC(=O)NS(=O)(=O)Oc2c(C(C)C)cc(OCCCN)cc2C(C)C)c(C(C)C)c1 [Example 16, [(2,4,6-Triisopropyl-phenyl)-acetyl]-sulfamic acid 4-(3-amino-propoxy)-2,6-diisopropyl-phenyl ester hydrochloride salt]	> 50 µM	-47%		
CCOC(=O)CCNC(=O)Nc1cc(C(C)C)c(OS(=O)(=O)NC(=O)Cc2c(C(C)C)cc(C(C)C)cc2C(C)C)c(C(C)C)c1 [Example 7]	49 µM			-30%
CC(C)c1cc(C(C)C)c(CC(=O)NS(=O)(=O)Oc2c(C(C)C)cc(NC(=O)Nc3c(C(C)C)cccc3C(C)C)cc2C(C)C)c(C(C)C)c1 [Example 29]	33 µM	-3%		
CC(C)c1cc(C(C)C)c(CC(=O)NS(=O)(=O)Oc2c(C(C)C)cc(NC(=O)Nc3ccccc3)cc2C(C)C)c(C(C)C)c1 [Example 30]	20.3 µM	-30%		
CC(C)c1cc(C(C)C)c(CC(=O)NS(=O)(=O)Oc2c(C(C)C)cc(CNCc3ccccc3)cc2C(C)C)c(C(C)C)c1 [Example 22, [(2,4,6-Triisopropyl-phenyl)-acetyl]-sulfamic acid 4-(benzylamino-methyl)-2,6-diisopropyl-phenyl ester mono hydrochloride]	22.8 µM	-18%		
CC(C)c1cc(C(C)C)c(CC(=O)NS(=O)(=O)Oc2c(C(C)C)cc(NC(=O)[C@@H](N)CCCCN)cc2C(C)C)c(C(C)C)c1 [Example 2, (S)-[(2,4,6-Triisopropyl-phenyl)-acetyl]-sulfamic acid 4-(2,6-diamino-hexanoylamino)-2,6-diisopropyl-phenyl ester dihydrochloride]	> 50 µM	-60%		
CC(C)c1cc(C(C)C)c(CC(=O)NS(=O)(=O)Oc2c(C(C)C)cc(C#N)cc2C(C)C)c(C(C)C)c1 [Example 18, [(2,4,6-Triisopropyl-phenyl)-acetyl]-sulfamic acid 4-cyano-2,6-diisopropyl-phenyl ester]	> 50 µM	-38%		
CC(C)c1cc(C(C)C)c(CC(=O)NS(=O)(=O)Oc2c(C(C)C)cc(NC(=O)C(N)Cc3c[nH]c4ccccc34)cc2C(C)C)c(C(C)C)c1 (stereo not drawn) [Example 9]	24 µM	-25%		
CC(C)c1cc(C(C)C)c(CC(=O)NS(=O)(=O)Oc2c(C(C)C)cc(NC(=O)CCCCN)cc2C(C)C)c(C(C)C)c1 [Example 10, [(2,4,6-Triisopropyl-phenyl)-acetyl]-sulfamic acid 4-(5-amino-pentanoylamino)-2,6-diisopropyl-phenyl ester trifluoroacetate(1:1) (salt)]		-15%		
CC(C)c1cc(C(C)C)c(CC(=O)NS(=O)(=O)Oc2c(C(C)C)cc(NCCO)cc2C(C)C)c(C(C)C)c1 [Example 27, [(2,4,6-Triisopropyl-phenyl)-acetyl]-sulfamic acid 4-(2-hydroxy-ethylamino)-2,6-diisopropyl-phenyl ester]	43 µM			

The next lines start with results.

IC50 [1]	SMILES	change in vivo at 10 mg/kg (Plasma TC)	APCC % Change in Plasma TC (Plasma TC)	change in vivo at 30 mg/kg (Plasma TC)
43.8 µM	CC(C)c1cc(C(C)C)c(CC(=O)NS(=O)(=O)Oc2c(C(C)C)cc(N(CCO)CCO)cc2C(C)C)c(C(C)C)c1 [Example 28, [(2,4,6-Triisopropyl-phenyl)-acetyl]-sulfamic acid 4-[bis-(2-hydroxy-ethyl)-amino]-2,6-diisopropyl-phenyl ester]	-48%		
750 µM	CSCCC(N)C(=O)Nc1cc(C(C)C)c(OS(=O)(=O)NC(=O)Cc2c(C(C)C)cc(C(C)C)cc2C(C)C)c(C(C)C)c1 (stereo not drawn) [Example 6, [(2,4,6-Triisopropyl-phenyl)-acetyl]-sulfamic acid 4-(2-amino-4-methylsulfanyl-butyrylamino)-2,6-diisopropyl-phenyl ester trifluoroacetate]	-72%		
31.1 µM	CC(C)c1cc(C(C)C)c(CC(=O)NS(=O)(=O)Oc2c(C(C)C)cc(NS(=O)(=O)c3cccs3)cc2C(C)C)c(C(C)C)c1 [Example 32, [(2,4,6-Triisopropyl-phenyl)-acetyl]-sulfamic acid 2,6-diisopropyl-4-(thiophene-2-sulfonyamino)-phenyl ester]	-60%		
50 µM	CC(C)c1cc(C(C)C)c(CC(=O)NS(=O)(=O)Oc2c(C(C)C)cc(CN3CCN(C)CC3)cc2C(C)C)c(C(C)C)c1 [Example 23, [(2,4,6-Triisopropyl-phenyl)-acetyl]-sulfamic acid 2,6-diisopropyl-4-(4-methyl-piperazin-1-ylmethyl)-phenyl ester, dihydrochloride]	5%		
> 50 µM	CC(C)c1cc(C(C)C)c(CC(=O)NS(=O)(=O)Oc2c(C(C)C)cc(NC(=O)[C@@H](C)N)cc2C(C)C)c(C(C)C)c1 [Example 11, (D)-[(2,4,6-Triisopropyl-phenyl)-acetyl]-sulfamic acid 4-(2-amino-propionylamino)-2,6-diisopropyl-phenyl ester trifluoroacetate(1:1) (salt)]	-19%		
> 50 µM	CC(C)c1cc(C(C)C)c(CC(=O)NS(=O)(=O)Oc2c(C(C)C)cc(OCCCN(C)C)cc2C(C)C)c(C(C)C)c1 [Example 14, [(2,4,6-Triisopropyl-phenyl)-acetyl]-sulfamic acid 4-(3-dimethylamino-propoxy)-2,6-diisopropyl-phenyl ester]		-11%	
> 50 µM	CC(C)c1cc(C(C)C)c(CC(=O)NS(=O)(=O)Oc2c(C(C)C)cc(NC(=O)NCCC(=O)O)cc2C(C)C)c(C(C)C)c1 [Example 8]	-15%		
45 µM	CC(C)c1cc(C(C)C)c(CC(=O)NS(=O)(=O)Oc2c(C(C)C)cc(NS(C)(=O)=O)cc2C(C)C)c(C(C)C)c1 [Example 34, [(2,4,6-Triisopropyl-phenyl)-acetyl]-sulfamic acid 2,6-diisopropyl-4methanesulfonylamino-phenyl ester]	-13%		
> 50 µM	CC(C)c1cc(C(C)C)c(CC(=O)NS(=O)(=O)Oc2c(C(C)C)cc(CNC(=O)CN)cc2C(C)C)c(C(C)C)c1 [Example 19, [(2,4,6-Triisopropyl-phenyl)-acetyl]-sulfamic acid 4-[(2-amino-acetylamino)-methyl]-2,6-diisopropyl-phenyl ester]	-16%		
29 µM	CC(C)c1cc(C(C)C)c(CC(=O)NS(=O)(=O)Oc2c(C(C)C)cc(SC#N)cc2C(C)C)c(C(C)C)c1 [Example 17, [(2,4,6-Triisopropyl-phenyl)-acetyl]-sulfamic acid 2,6-diisopropyl-4-thiocyanato-phenyl ester]	-46%		
50 µM	CC(C)c1cc(C(C)C)c(CC(=O)NS(=O)(=O)Oc2c(C(C)C)cc(S(N)(=O)=O)cc2C(C)C)c(C(C)C)c1 [Example 35, [(2,4,6-Triisopropyl-phenyl)-acetyl]-sulfamic acid 2,6-diisopropyl-4-sulfamoyl-phenyl ester]			
